# Like-named read-outs stand apart in the source and are kept apart here.
# Legend:
# TNBS induced colitis = test: TNBS-induced inflammatory bowel disease (colitis) in rats; type: in vivo, rat
# Procedure: Colitis is induced in male Wistar rats by intracolonic administration of 10-50 mg of TNBS in 0.25 ml of 50% ethanol. Two days prior to administration of TNBS animals are treated with various doses of sterolide (initially ranging from 0.5 to 10 mg/kg of the compound in 0.125% carboxymethyl cellulose in phosphate buffered saline and 1% DMSO) or vehicle control (0.125% carboxymethyl cellulose in phosphate buffered saline and 1% DMSO) or standard steroid such as for example budesonide (1 mg/kg) for 14 days after the TNBS is applied. Rats were sacrificed, blood samples werewere taken (at day 7 and 15 after application of TNBS) to obtain serum samples followed by macroscopic observation and histological evaluation to determine the degree of colonic inflammation. Macroscopic and histological evaluation of tissue damage was done blindly by pathologist. The criteria for assessing macroscopic damage and the numerical rating score are as follows: 0, no damage; 1, localized hyperemia and/or edema; 2, linear ulcer<half of the width of the colon; 3, linear ulcer>half of the width of the colon; 4, small circular ulcer (<1 cm); 5, circular ulcer between 1 and 2 cm; 6, circular ulcer>2 cm. Scores from individual animals were added together and divided by number of animals to get average […] damage. For histological evaluation of colonic injury, each colon is blindly scored according to the following criteria: A) Ulceration: 0, no ulcer, epithelization; 1, small ulcer<3 mm; 2, large ulcer>3 mm; B) Inflammation: 0, no inflammation; 1, mild; 2, moderate; 3, severe; C) Depth of lesion: 0, none; 1, submucosa; 2, muscularis propria; 3, serosa; D) Necrosis: 0, none; 1, mild; 2, severe; E) Granulomas: No, no granulomas; Yes, granulomas present. Maximum score, defined as a sum of all individual scores in this scoring system is 10+granulomas. In some experiments Lekotriene B4 (LTB4) and serum α1 acidic glycoprotein were also measured as an additional indicator of inflammatory activity. Likewise, in selected experiments full thickness specimens from inflamed tissue adjacent to the ulcerated area are excised for measurement of myeloperoxidase (MPO) activity.
# Improvement in this experiment is defined by the lower average macroscopic damage and lower histological score, as well as lowering of LTBB4, serum α1 acidic glycoprotein and MPO activity in sterolide treated then in the group of […] (animals receiving vehicle alone).
# FIG. 1A describes the macroscopic damage score of the colon in the rat model of TNBS induced colitis (Mann-Whitney Test). The macroscopic damage score of the colon is defined as 0—no damage; 1—localized hyperemia and/or edema; 2—linear ulcer<half of the width of the colon; 3—linear>half the width of the colon or small ulcer (<1 cm) 4—circular ulcer<1 cm; 5—circular between 1 and 2 cm; and 6—circular ulcer>2 cm. The compounds 1′, 2′ and 3′ as shown in the table below were compared against budesonide [a known drug useful for the treatment of Crohn's disease in humans] as a treatment control and just a vehicle as a no treatment control. The no treatment control gave a score of 4 while the treatment control, budesonide, at a dosage of 1 mg/kg gave a score of 2.
# FIG. 1B describes effect of conjugates on histological damage score in TNBS induced colitis in rats (Mann-Whitney Test). The histological damage score is defined according to the following criteria: A) Ulceration: 0, no ulcer, epithelization; 1, small ulcer<3 mm; 2, large ulcer>3 mm; B) Inflammation: 0, no inflammation; 1, mild; 2, moderate; 3, severe; C) Depth of lesion: 0, none; 1, submucosa; 2, muscularis propria; 3, serosa; D) Necrosis: 0, none; 1, mild; 2, severe; E) Granulomas: No, no granulomas; Yes, granulomas present. Maximum score, defined as a sum of all individual scores in this scoring system is 10+granulomas. […]
# in vivo [1] = details: male, BALB/CJ, mouse
# Procedure: (§1) For I.N. and P.O. administration the substance was dissolved in DMSO. 0.5% methyl cellulose was added up to 100% of the total volume. The solution was applied in a volume of 10 ml/kg b.w. (P.O.) and 10 ml/kg b.w. (I.N.). For I.V. administration the substance was dissolved in DMF. PBS was added up to 100% of the total volume. The solution was applied in a volume of 5 ml/kg b.w. (I.V.)
# (§2) The experiment was carried out on approximately eight week old male BALB/CJ mice (IFFA CREDO, Lyon, France), weighing ˜25 g. Animals were weighed, marked and grouped a day before the beginning of the study. After weighing each mouse was given an earmark and placed into a cage (5 mice per cage). […]
# (§3) The concentration of the administered compound in biological matrices are calculated by the peak area ratios of compound 1 to an internal standard of roxithromycin using calibration curves and quality control samples.
# (§4) Non-compartmental analysis was used for pharmacokinetic analysis in plasma and tissue. The pharmacokinetic parameters were calculated based on average values at each time point using WinNonlin Professional Software, Version 4.1 (Pharsight).
# (§5) The pharmacokinetic parameters were calculated as disclosed herein to obtain the bioavailability wherein F=(AUC p.o.(0−∞)/AUC i.v.(0−∞))/(Di.v./Dp.o.).
# [2] = Oral bioavailability in rats (p.o. vs i.v., HPLC/MS-MS); details: rat, in vivo
# Procedure: (§6) Male Sprague-Dawley rats weighing approximately 200 g were used. After weighing, each rat was given an earmark and placed into a cage. The day before the beginning of the study, animals were randomly distributed into 5 groups with 5 rats/group and placed into solid bottom cages, on wood dust-free bedding (VRF-1 Rodent's diet, Altromin Gmbh). During the experiment, the rats were maintained on a 12-h light-dark cycle. The rats were weighed and fasted for 12 hours prior to p.o. administration.
# (§7) Compound 5 was administered p.o. in 0.125% carboxymethyl cellulose suspension. The dissolved substance was administered oral at a dose of 30 mg/kg body weight (b.w.), using 2.5 mL syringe (BD) and metal gavage. The administered volume was 10 mL/kg b.w.
# (§8) Plasma and blood samples were obtained at the following time points after administration: 15, 30, 60, 120, 240, 360 and 480 minutes.
# (§9) Blood samples were collected by puncturing the lateral tail vein. Prior to each blood sampling, animals were maintained in warming cabinets at 37° C. for 15 minutes. At each sampling time-point 50 μL of blood were collected and added to an Eppendorf test tube (1.5 mL) containing 50 μL demi water. Blood was collected according the time points stated in the protocol. Specimens were stored at −20° C. until analysis.
# (§10) The concentrations of a compound 5 in the biological matrices were determined by a high performance liquid chromatography method using an acetonitrile and water (acidified by 0.1% formic acid) gradient as the chromatographic medium with tandem mass spectrometry detection (HPLC/MS-MS) (Guidance for Industry, Bioanalytical Method Validation, U.S. Department of Health and Human Services, Food and Drug Administration, May 2001).
# (§11) Biological samples were prepared by deproteinization with acetonitrile, containing an internal standard. After centrifugation and evaporation of the supernatant fraction, samples were reconstituted in acetonitrile:water with addition of 0.1% formic acid.
# (§12) HPLC separation was performed on a reverse phase C18 analytical column (Phenomenex C18(2)m 50×2 mm (3 μm) No 182700-5) with a guard column, maintained at ambient temperature, using a gradient of water:acetonitrile [0 min-1 min 10% acetonitrile, 2.5-3.5 minutes 80% acetonitrile, 3.5-5.6 min 10% acetonitrile with addition of 0.1% formic acid at flow rate 0.3 ml/min
# (§13) MS-MS detection was performed in multi-resolution mode (MRM).
# (§14) The concentration of the administered compound in biological matrices are calculated by the peak area ratios of compound 5 to an internal standard of roxithromycin using calibration curves and quality control samples.
# (§15) The pharmacokinetic parameters were calculated using the PK solutions 2.0 software (Summit Research Services, Pharmacokinetics and Metabolism Software).
# (§16) The pharmacokinetic parameters were calculated as disclosed herein to obtain the bioavailability wherein F=(AUC p.o.(0−∞)/AUC i.v. (0−∞))/(Di.v./Dp.o.).
# in vivo [3] = details: male, rat, po
# Procedure: as §6, §7, §8, §9, §10, §11, §12, §13, §14, §15, §16
# [4] = mouse, in vivo
# Procedure: as §1, §2, §3, §4, §5
# [5] = AUC of compounds tested in mice or rats; parameters: concentration or dose not given beside the values; details: in vivo, po
# Procedure: The area under the curve (AUC) is calculated as: [formula] where n is the number of data points
# AUC∞=AUC(0−t)+Cn/λz, where Cn is the last concentration and λz is the elimination rate constant (estimated from the later portion of the plasma/blood concentration vs. time profiles).
# [6] = rat, in vivo; for Amounts detected in plasma and blood: po
# Procedure: as §6, §7, §8, §9, §10, §11, §12, §13, §14, §15, §16
smiles,measurement,setting,value
CC[C@H]1OC(=O)[C@H](C)[C@@H](O[C@H]2C[C@@](C)(OC)[C@@H](O)[C@H](C)O2)[C@H](C)[C@@H](O[C@@H]2O[C@H](C)C[C@H](N(C)C)[C@H]2O)[C@](C)(O)C[C@@H](C)CN(CCCNC(=O)[C@@]2(O)[C@H](C)CC3C4CCC5=CC(=O)C=C[C@]5(C)[C@@]4(F)[C@@H](O)C[C@@]32C)[C@H](C)[C@@H](O)[C@]1(C)O (stereo partly shown) [2′],efficacy on macroscopic damage score compared with budesonide (1 mg/kg),"TNBS induced colitis; FIG. 1A, 2 mg/kg",comparable or superior efficacy to that of the standard steroid budesonide
same,efficacy on histological damage score compared with budesonide (1 mg/kg),"TNBS induced colitis; FIG. 1B, 2 mg/kg",comparable or superior efficacy to that of the standard steroid budesonide
same,bioavailability,in vivo [1],< 1%
CC[C@H]1OC(=O)[C@H](C)[C@@H](O[C@H]2C[C@@](C)(OC)[C@@H](O)[C@H](C)O2)[C@H](C)[C@@H](O[C@@H]2O[C@H](C)C[C@H](N(C)C)[C@H]2O)[C@](C)(O)C[C@@H](C)CN(CCCNC(=O)Cc2c(C)n(C(=O)c3ccc(Cl)cc3)c3ccc(OC)cc23)[C@H](C)[C@@H](O)[C@]1(C)O [3′],efficacy on macroscopic damage score compared with budesonide (1 mg/kg),"TNBS induced colitis; FIG. 1A, 10 mg/kg",comparable or superior efficacy to that of the standard steroid budesonide
same,efficacy on histological damage score compared with budesonide (1 mg/kg),"TNBS induced colitis; FIG. 1B, 10 mg/kg",comparable or superior efficacy to that of the standard steroid budesonide
same,bioavailability,[2]; male,3.7%
same,AUC,[2],2580 ng·h/mL
same,bioavailability,[2],< 10%
CC[C@H]1OC(=O)[C@H](C)[C@@H](O[C@H]2C[C@@](C)(OC)[C@@H](O)[C@H](C)O2)[C@H](C)[C@@H](O[C@@H]2O[C@H](C)C[C@H](N(C)C)[C@H]2O)[C@](C)(O)C[C@@H](C)CN(CCCNC(=O)c2cccnc2Nc2cccc(C(F)(F)F)c2C)[C@H](C)[C@@H](O)[C@]1(C)O [4′],bioavailability,[2]; male,6.9%
same,AUC,[2],2180 ng·h/mL
same,bioavailability,[2],< 10%
CC[C@H]1OC(=O)[C@H](C)[C@@H](O)[C@H](C)[C@@H](O[C@@H]2O[C@H](C)C[C@H](N(C)C)[C@H]2O)[C@](C)(O)C[C@@H](C)CN(CCCNC(=O)Cc2c(C)n(C(=O)c3ccc(Cl)cc3)c3ccc(OC)cc23)[C@H](C)[C@@H](O)[C@]1(C)O [9′],bioavailability,[2]; male,2.5%
same,AUC,[2],1130 ng·h/mL
same,bioavailability,[2],< 10%
CC[C@H]1OC(=O)[C@H](C)[C@@H](OC2C[C@@](C)(OC)[C@@H](O)[C@H](C)O2)[C@H](C)C(O[C@@H]2O[C@H](C)C[C@H](N(C)C)[C@H]2O)[C@](C)(O)C[C@@H](C)CN(CCCNCCC(=O)O[C@]2(C(=O)OC)[C@H](C)CC3C4C[C@H](F)C5=CC(=O)C=C[C@]5(C)[C@@]4(F)[C@@H](O)C[C@@]32C)[C@H](C)[C@@H](O)[C@]1(C)O (stereo partly shown) [10′],bioavailability,in vivo [3],< 1%
CC[C@H]1OC(=O)[C@H](C)[C@@H](O[C@H]2C[C@@](C)(OC)[C@@H](O)[C@H](C)O2)[C@H](C)C(O[C@@H]2O[C@H](C)C[C@H](N(C)C)[C@H]2O)[C@](C)(O)C[C@@H](C)/C(=N\OCCCCCCNC(=O)CNS(=O)(=O)c2ccc(-n3nc(C(F)(F)F)cc3-c3ccc(C)cc3)cc2)[C@H](C)[C@@H](O)[C@]1(C)O (stereo partly shown) [11′],bioavailability,[2]; male,< 1%
"CCCC1O[C@@H]2C[C@H]3[C@@H]4CCC5=CC(=O)C=C[C@]5(C)[C@H]4[C@@H](O)C[C@]3(C)[C@]2(C(=O)CO)O1 (stereo partly shown) [Budesonide, budesonide, reference compound]",macroscopic damage score of the colon,"TNBS induced colitis; FIG. 1A, 1 mg/kg, score 0-6, no treatment control 4",2
same,histological damage score,"TNBS induced colitis; FIG. 1B, 1 mg/kg, maximum score 10, no treatment control 7,6","4,5"
CC[C@H]1OC(=O)[C@H](C)[C@@H](O)[C@H](C)[C@@H](O)[C@](C)(O)C[C@@H](C)CN(CCCNCCC(=O)O[C@]2(C(=O)OC)[C@H](C)CC3C4C[C@H](F)C5=CC(=O)C=C[C@]5(C)[C@@]4(F)[C@@H](O)C[C@@]32C)[C@H](C)[C@@H](O)[C@]1(C)O (stereo partly shown) [Compound 1],oral bioavailability,[4],not measurable
same,AUC,[5],70 ng·h/mL
CC[C@H]1OC(=O)[C@H](C)[C@@H](O)[C@H](C)[C@@H](O)[C@](C)(O)C[C@@H](C)CN(CCCNC(=O)[C@H]2[C@H](C)CC3C4CCC5=CC(=O)C=C[C@]5(C)[C@@]4(F)[C@@H](O)C[C@@]32C)[C@H](C)[C@@H](O)[C@]1(C)O (stereo partly shown) [Compound 1′],efficacy on macroscopic damage score compared with budesonide (1 mg/kg),"TNBS induced colitis; FIG. 1A, 2 mg/kg",comparable or superior efficacy to that of the standard steroid budesonide
same,efficacy on histological damage score compared with budesonide (1 mg/kg),"TNBS induced colitis; FIG. 1B, 2 mg/kg",comparable or superior efficacy to that of the standard steroid budesonide
same,efficacy on macroscopic damage score compared with budesonide (1 mg/kg),"TNBS induced colitis; FIG. 2, dosages ranging from 4 mg/kg to 0.5 mg/kg",comparable or superior efficacy to that of the standard steroid budesonide
CC[C@H]1OC(=O)C(C)[C@@H](O[C@H]2C[C@@](C)(OC)[C@@H](O)[C@H](C)O2)[C@H](C)[C@@H](O[C@@H]2O[C@H](C)C[C@H](N(C)C)[C@H]2O)[C@](C)(O)C[C@@H](C)/C(=N\OCCCCCNC(=O)[C@@]2(O)[C@H](C)CC3C4CCC5=CC(=O)C=C[C@]5(C)[C@@]4(F)[C@@H](O)C[C@]32C)[C@H](C)[C@@H](O)[C@]1(C)O (stereo partly shown) [Compound 5],oral bioavailability,[6]; 30 mg/kg,not measurable
same,Amounts detected in plasma and blood,[6]; 30 mg/kg,below the limits of detection
CC[C@H]1OC(=O)[C@H](C)C(OC2C[C@@](C)(OC)[C@@H](O)[C@H](C)O2)[C@H](C)[C@@H](O[C@@H]2O[C@H](C)C[C@H](N(C)CCCNC(=O)[C@]3(O)[C@H](C)CC4C5CCC6=CC(=O)C=C[C@]6(C)[C@@]5(F)[C@@H](O)C[C@@]43C)[C@H]2O)[C@](C)(O)C[C@H](C)CN(C)[C@H](C)[C@@H](O)[C@]1(C)O (stereo partly shown) [Compound 6],AUC,[5],400 ng·h/mL
CC[C@H]1OC(=O)[C@H](C)[C@@H](O)[C@H](C)[C@@H](O)[C@](C)(O)C[C@@H](C)CN(CCCN(CC)CCC(=O)O[C@]2(C(=O)OC)[C@H](C)CC3C4C[C@H](F)C5=CC(=O)C=C[C@]5(C)[C@@]4(F)[C@@H](O)C[C@@]32C)[C@H](C)[C@@H](O)[C@]1(C)O (stereo partly shown) [Compound 8],AUC,[5],60 ng·h/mL
CCCCN(CCCN1C[C@H](C)C[C@@](C)(O)[C@H](O)[C@@H](C)[C@H](O)[C@@H](C)C(=O)O[C@H](CC)[C@@](C)(O)[C@H](O)[C@H]1C)CCC(=O)O[C@]1(C(=O)OC)[C@H](C)CC2C3C[C@H](F)C4=CC(=O)C=C[C@]4(C)[C@@]3(F)[C@@H](O)C[C@@]21C (stereo partly shown) [Compound 9],AUC,[5],390 ng·h/mL
CCCN(CCCN1C[C@H](C)C[C@@](C)(O)[C@H](O)[C@@H](C)[C@H](O)[C@@H](C)C(=O)O[C@H](CC)[C@@](C)(O)[C@H](O)[C@H]1C)CCC(=O)O[C@]1(C(=O)OC)[C@H](C)CC2C3C[C@H](F)C4=CC(=O)C=C[C@]4(C)[C@@]3(F)[C@@H](O)C[C@@]21C (stereo partly shown) [Compound 10],AUC,[5],60 ng·h/mL
CC[C@H]1OC(=O)[C@H](C)[C@@H](O)[C@H](C)[C@@H](O)[C@](C)(O)C[C@@H](C)CN(CCCNC(=O)[C@H]2[C@H](C)CC3C4CCC5=CC(=O)C=C[C@]5(C)[C@@]4(F)[C@@H](O)C[C@@]32C)[C@H](C)[C@@H](O)[C@]1(C)O (stereo partly shown) [drawing 72],oral bioavailability,[6],not measurable
same,Amounts detected in plasma and blood,[6],below the limits of detection

# — patent publication US20060183696A1, “Use of immune cell specific conjugates for treatment of inflammatory diseases of gastrointestinal tract” (Pliva-Istrazivacki Institut d.o.o., priority 2004, published 2006)
